Data taken from patent US10662174B2, “BTK inhibitor” (Hubei Bio-Pharmaceutical Industrial Technological Institute …, priority 2015, dated 2020).

The compounds below were run against T1, BTK kinase (Homo sapiens, UniProt Q06187) (assay: Assay of inhibition activity of BTK in vitro (HTRF kit, read on Envision)). Settings: not given.
T1 construct: purchased Invitrogen PR5442A
T1 sequence (Q06187 whole entry): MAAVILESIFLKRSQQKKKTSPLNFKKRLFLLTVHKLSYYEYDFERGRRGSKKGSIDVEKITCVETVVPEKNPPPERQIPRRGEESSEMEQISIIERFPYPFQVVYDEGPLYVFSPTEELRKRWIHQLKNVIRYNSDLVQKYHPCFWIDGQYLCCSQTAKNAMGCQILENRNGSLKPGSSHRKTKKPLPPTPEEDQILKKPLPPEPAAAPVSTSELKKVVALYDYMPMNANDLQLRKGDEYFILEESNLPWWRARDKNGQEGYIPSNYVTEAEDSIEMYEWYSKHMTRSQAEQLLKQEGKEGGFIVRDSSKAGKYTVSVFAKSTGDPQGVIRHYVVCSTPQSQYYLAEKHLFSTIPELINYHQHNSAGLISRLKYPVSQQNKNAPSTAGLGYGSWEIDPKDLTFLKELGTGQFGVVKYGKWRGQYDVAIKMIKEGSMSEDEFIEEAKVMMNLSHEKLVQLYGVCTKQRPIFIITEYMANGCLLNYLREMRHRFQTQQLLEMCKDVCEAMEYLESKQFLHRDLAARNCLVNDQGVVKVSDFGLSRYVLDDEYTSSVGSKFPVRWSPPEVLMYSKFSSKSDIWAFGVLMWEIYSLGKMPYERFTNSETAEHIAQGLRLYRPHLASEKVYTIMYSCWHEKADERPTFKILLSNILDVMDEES
Format: biochemical
Procedure: Assay of Inhibition Activity of BTK In Vitro
The inhibition of compounds on BTK kinase was evaluated by […] detected by Envision, using the IC50 value of the compounds as index.
BTK kinase: Invitrogen-PR5442A
HTRF Assay Kit: Cisbio-62TKOPEJ
Plate for compound preparation: Greiner-781280
Cisbio HTRF Kit: Cisbio-62TKOPEJ
Centrifuge: Eppendorf-5810R
Bravo: Agilent Technologies-Bravo
Gradient Dilution of Compounds: […]
The test compound was dissolved with DMSO to be of 1 mM as a stock solution. Such a stock solution was diluted with DMSO by 10-fold, thereby obtaining an initial solution in a concentration of […] which was added into wells at the second column in a plate. 20 μL DMSO was added to other wells using Bravo. Then, 10 μL of the initial solution was transferred from wells at the second column to wells at the third column, followed by mixing obtained solution in the wells at the third column, thereby obtain a first diluted solution in a concentration of 1/3 μM. Subsequently, 10 μL of the first diluted solution was further transferred from wells at the third column to wells at the fourth column, followed by mixing obtained solution in the wells at the fourth column, thereby obtain a second diluted solution in a concentration of 1/9 μM. Such a three-fold serial dilution was performed 10 times, with 11 solutions in series diluted concentrations and a final diluted solution in a concentration of 0.017 nM obtained.
All diluted solutions were further diluted by 25-fold with ultrapure water, thus obtain test solutions, which were equilibrated at r.t. for 30 min before use.
To 2.5 μL of test solution, which was pipetted into each well of Assay plate using Bravo, 5 μL kinase mixture was added using the multi-channel pipettor. The mixture was centrifuged at 1000 rpm for 20 s, followed by incubation at 23° C. for 30 min. The reaction was initiated by 2.5 μL ATP mixture which was pipetted into the wells by Multidrop.
The reaction mixture of BTK kinase (10 μL) included 1.0 nM BTK, 1 μM biotin-TK1 peptide and 20 μM ATP. The reaction buffer included 50 mM Hepes (pH7.5), 10 mM MgCl2 and 0.01 mM […]. The kinase mixture was reacted in incubator at 23° C. for 90 mim.
The reaction was stopped by adding 10 μL Detection Reagent to each well of Assay plate, and the plate was left in incubator at 23° C. for 1 h before read on Envision.
Data analysis: The IC50 values of compounds were calculated using Excel fit.
For `CN1CCN(c2ccc(Nc3cc(-c4ccc5c(c4)c(C(=O)c4ccc(C6CC6)cc4F)cn5C)cn(C)c3=O)nc2)CC1` [Example 5], the IC50 was 1 to 10 µM.

Same assay, conditions: 1.0 nM BTK, 1 μM biotin-TK1 peptide, 20 μM ATP, 23° C., tested by Envision; read-out: BTK IC50
`C=CC(=O)N1CCC[C@@H](Nc2ncnc(N)c2C(=O)c2ccc(Oc3ccccc3)cc2C)C1` [Example 25] showed an IC50 of 0.1 to 1 µM.
`CN(C)/C=C/CC(=O)N1CCCC(n2nc(-c3ccc(Oc4ccccc4)cc3)c3c(N)n[nH]c(=O)c32)C1` (centres unmarked) [Example 84] showed an IC50 of under 0.1 µM.
Work on `C=CS(=O)(=O)N1CCC[C@@H](n2nc(-c3ccc(Oc4ccccc4)cc3)c3c(N)n[nH]c(=O)c32)C1` [Example 77] yielded an IC50 of under 0.1 µM.
`C=CC(=O)N1CCC[C@@H](n2nc(-c3ccc(Oc4cc(C)ccn4)cc3)c3c(N)n[nH]c(=O)c32)C1` [Example 89] showed an IC50 of under 0.1 µM.
`CC#CC(=O)N1CCC[C@@H](n2nc(-c3ccc(Oc4ccccc4)cc3)c3c(N)n[nH]c(=O)c32)C1` [Example 45] was tested, and the IC50 was under 0.1 µM.
`C=CC(=O)N1CCC[C@@H](n2nc(-c3ccc(OC4Cc5ccccc5C4)cc3)c3c(N)n[nH]c(=O)c32)C1` [Example 74] gave an IC50 of under 0.1 µM.
`C=CC(=O)N1CC[C@@H](n2nc(-c3ccc(Oc4ccccc4)cc3)c3c(N)n[nH]c(=O)c32)C1` [Example 60] was tested, and the IC50 was under 0.1 µM.
`C=CC(=O)N1CCCC(n2nc(-c3ccc(Oc4ccccc4C)cc3)c3c(N)n[nH]c(=O)c32)C1` (centres unmarked) [Example 54] was tested, and the IC50 was under 0.1 µM.
`Cc1ccn2c(=O)c(-c3cccc(-c4cc(Nc5ccc(N6CCN(C)CC6)cn5)c(=O)n(C)c4)c3C)ccc2c1` [Example 10] showed an IC50 of 1 to 10 µM.
Work on `C=CC(=O)N1CCCCC(n2nc(-c3ccc(Oc4ccccc4)cc3)c3c(N)n[nH]c(=O)c32)C1` (centres unmarked) [Example 51] yielded an IC50 of under 0.1 µM.
Compound `C=CC(=O)N[C@H]1CC[C@@H](n2nc(-c3ccc(Oc4ccccn4)cc3)c3c(N)n[nH]c(=O)c32)CC1` [Example 65] has an IC50 of under 0.1 µM.
Work on `C=CC(=O)N1CCC[C@@H](Nc2ncnc3[nH]c(=O)c(-c4ccccc4)cc23)C1` [Example 2] yielded an IC50 of 1 to 10 µM.
Compound `C=CC(=O)N[C@H]1CC[C@@H](n2nc(-c3ccc(Oc4ccccc4)cc3)c3c(N)n[nH]c(=O)c32)CC1` [Example 57] has an IC50 of under 0.1 µM.
